How the values were obtained:
PC3 cells [1] = assay: PC3 cell proliferation, 2D activity assay (Cell Titer-Lumi, 72 h); format: cell-based, human
PC3 cells [2] = assay: PC3 cell proliferation, 3D activity assay (3D culture, 14 days); format: cell-based, human; conditions: read-out: 3D inhibitory activity against PC3 cells IC50
FAK recombinant protein = FAK recombinant protein (Homo sapiens (Human), UniProt Q05397); assay: Inhibitory activity against FAK enzyme (HTRF, TK substrate); format: biochemical
Sequence of FAK recombinant protein (Q05397 whole entry): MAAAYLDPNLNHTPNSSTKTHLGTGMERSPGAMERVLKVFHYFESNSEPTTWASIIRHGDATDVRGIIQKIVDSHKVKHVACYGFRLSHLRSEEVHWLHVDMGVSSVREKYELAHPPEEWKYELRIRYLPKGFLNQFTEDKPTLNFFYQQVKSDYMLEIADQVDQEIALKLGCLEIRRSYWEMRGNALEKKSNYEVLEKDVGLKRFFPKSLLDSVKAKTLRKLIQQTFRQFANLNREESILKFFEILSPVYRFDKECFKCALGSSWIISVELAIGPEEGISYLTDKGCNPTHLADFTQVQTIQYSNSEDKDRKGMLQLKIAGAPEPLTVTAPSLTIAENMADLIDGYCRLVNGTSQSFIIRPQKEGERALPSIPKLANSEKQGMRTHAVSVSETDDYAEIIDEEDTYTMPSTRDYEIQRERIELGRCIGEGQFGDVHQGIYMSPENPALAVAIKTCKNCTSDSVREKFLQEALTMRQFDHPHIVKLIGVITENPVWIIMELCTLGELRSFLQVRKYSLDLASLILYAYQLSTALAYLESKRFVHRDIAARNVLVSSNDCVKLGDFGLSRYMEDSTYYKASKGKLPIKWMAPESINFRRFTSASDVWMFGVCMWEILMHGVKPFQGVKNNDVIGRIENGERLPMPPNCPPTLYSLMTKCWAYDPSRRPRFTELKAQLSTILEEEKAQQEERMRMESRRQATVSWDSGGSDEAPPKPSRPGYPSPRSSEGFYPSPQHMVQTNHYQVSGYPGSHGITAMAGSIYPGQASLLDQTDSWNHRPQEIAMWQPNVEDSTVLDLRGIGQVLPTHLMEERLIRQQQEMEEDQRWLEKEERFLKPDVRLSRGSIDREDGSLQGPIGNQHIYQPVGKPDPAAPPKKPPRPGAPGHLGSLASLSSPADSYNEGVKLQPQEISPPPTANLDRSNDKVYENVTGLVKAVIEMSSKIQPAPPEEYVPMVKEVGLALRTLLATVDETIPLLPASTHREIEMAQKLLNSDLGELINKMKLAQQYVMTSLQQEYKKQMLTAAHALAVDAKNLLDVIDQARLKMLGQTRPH
Experimental: A compound serially diluted with DMSO was mixed with a FAK recombinant protein. After the mixture was left to stand at room temperature for 10 min, a biotin-labeled TK substrate (TK) and ATP were added. […] The inhibition percentage and IC50 of the compound were calculated compared to the DMSO control group.

[3] = Homo sapiens, PC-3, read-out: 2D inhibitory activity against PC3 cells IC50

SMILES	IC50 (PC3 cells [1]; [3]) [nM]	IC50 (PC3 cells [2]; Homo sapiens, PC-3, 336 h) [nM]	IC50 (FAK recombinant protein) [nM]	IC50 (PC3 cells [1]; read-out: 2D inhibitory activity against PC3 cells IC50) [nM]	IC50 (PC3 cells [2]) [nM]
COc1cc(C(=O)NC2CC3(CCN(C)CC3)C2)c(F)cc1Nc1ncc(C#N)c(Oc2cccc3c2C(=O)N(C)C32CC2)n1 [Compound 194]	> 2000	< 5	< 20	–	–
COc1cc(CNC2CCN(C)CC2)ccc1Nc1ncc(Cl)c(Oc2cccc3c2C(=O)N(C)C32CC2)n1 [Compound 155]	> 2000	5 to 50	< 20	–	–
CN1CCC(NC(=O)c2ccc(Nc3ncc(C(F)(F)F)c(Oc4cccc5c4C(=O)N(C)C54CC4)n3)c(OC(F)(F)F)c2)CC1 [Compound 53]	> 2000	5 to 50	< 20	–	–
COc1cc(C2=NOC3(CCN(C)CC3)C2)ccc1Nc1ncc(C(F)(F)F)c(Oc2cccc3c2C(=O)N(C)C32CC2)n1 [Compound 68]	> 2000	> 50	< 20	–	–
COc1cc(C(=O)NC2COC3(CCN(C)CC3)C2)c(F)cc1Nc1ncc(C(F)(F)F)c(Oc2cccc3c2C(=O)N(C)C32CC2)n1 (stereo not drawn) [Compound 16]	> 2000	< 5	< 20	–	–
COc1cc(N2CCC(N(C)C)CC2)c(F)cc1Nc1ncc(Cl)c(Oc2cccc3c2C(=O)N(C)C32CC2)n1 [Compound 152]	> 2000	5 to 50	< 20	–	–
CCN1CCC(NC(=O)c2cc(OC)c(Nc3ncc(C(F)(F)F)c(Oc4cccc5c4C(=O)N(C)C54CC4)n3)cc2F)CC1 [Compound 41]	> 2000	< 5	< 20	–	–
COc1cc(C(=O)NC2CC3(CCN(C)CC3)C2)ccc1Nc1ncc(C(F)(F)F)c(Cc2cccc3c2C(=O)N(C)C32CC2)n1 [Compound 101, 3-methoxy-4-((4-((2′-methyl-3′-oxospiro[cyclopropane-1,1′-isoindolin]-4′-yl)methyl)-5-(trifluoromethyl)pyrimidin-2-yl)amino)-N-(7-methyl-7-azaspiro[3.5]nonan-2-yl)benzamide]	> 2000	5 to 50	< 20	–	–
COc1cc(C(=O)NC2CC3(CCN(C)CC3)C2)ccc1Nc1ncc(Br)c(Oc2cccc3c2C(=O)N(C)C32CC2)n1 [Compound 176]	> 2000	< 5	< 20	–	–
COc1cc(N2CC(N3CC(N(C)C)C3)C2)ccc1Nc1ncc(Cl)c(Oc2cccc3c2C(=O)N(C)C32CC2)n1 [Compound 158]	> 2000	5 to 50	< 20	–	–
COc1cc(C(=O)NC2CCC3(CC2)CCN(C)CC3)ccc1Nc1ncc(C(F)(F)F)c(Cc2cccc3c2C(=O)N(C)C32CC2)n1 [Compound 107]	> 2000	> 50	< 20	–	–
COc1cc(C(=O)NC2CCC3(CC2)CCN(C)C3)ccc1Nc1ncc(C(F)(F)F)c(Oc2cccc3c2C(=O)N(C)C32CC2)n1 (stereo not drawn) [Compound 21]	> 2000	< 5	< 20	–	–
COc1cc(C(=O)NC2CCC3(CC2)CCN(C)CC3)ccc1Nc1ncc(C(F)(F)F)c(Oc2cccc3c2C(=O)N(C)C32CC2)n1 [Compound 23]	> 2000	5 to 50	< 20	–	–
COc1cc(C(=O)NC2CCN(C)CC2)c(F)cc1Nc1ncc(Br)c(Oc2cccc3c2C(=O)N(C)C32CC2)n1 [Compound 174, 4-((5-bromo-4-((2′-methyl-3′-oxospiro[cyclopropane-1,1′-isoindolin]-4′-yl)oxy)pyrimidin-2-yl)amino)-2-fluoro-5-methoxy-N-(1-methylpiperidin-4-yl)benzamide]	> 2000	< 5	< 20	–	–
COc1cc(N2CCC3(CCN(C)C3)C2)ccc1Nc1ncc(Cl)c(Oc2cccc3c2C(=O)N(C)C32CC2)n1 (stereo not drawn) [Compound 151]	> 2000	< 5	< 20	–	–
COc1cc(N2CC3(CCN(C)CC3)C2)c(F)cc1Nc1ncc(Cl)c(Oc2cccc3c2C(=O)N(C)C32COC2)n1 [Compound 217]	> 2000	5 to 50	< 20	–	–
COc1cc(N2CC3(CCN(C)CC3)C2)ccc1Nc1ncc(Cl)c(Oc2cccc3c2C(=O)N(C)C32COC2)n1 [Compound 216]	> 2000	5 to 50	< 20	–	–
COc1cc(N2CCN(C)CC2=O)c(F)cc1Nc1ncc(C(F)(F)F)c(Oc2cccc3c2C(=O)N(C)C32CC2)n1 [Compound 129]	> 2000	5 to 50	< 20	–	–

SMILES	IC50 (PC3 cells [1]; [3]) [nM]	IC50 (PC3 cells [2]; Homo sapiens, PC-3, 336 h) [nM]	IC50 (FAK recombinant protein) [nM]	IC50 (PC3 cells [1]; read-out: 2D inhibitory activity against PC3 cells IC50) [nM]	IC50 (PC3 cells [2]) [nM]
COc1cc(N2CC3(CCN(C)CC3)C2)ccc1Nc1ncc(Cl)c(Oc2cccc3c2C(=O)N(C)C32CCC2)n1 [Compound 203, 94′-((5-chloro-2-((2-methoxy-4-(7-methyl-2,7-diazaspiro[3.5]nonan-2-yl)phenyl)amino)pyrimidin-4-yl)oxy)-2′-methylspiro[cyclobutane-1,1′-isoindolin]-3′-one]	–	–	< 20	> 2000	< 5
COc1cc(C(=O)NC2CCN(C)CC2)c(F)cc1Nc1ncc(Cl)c(Oc2cccc3c2C(=O)N(C)C32CCC2)n1 [Compound 205]	> 2000	< 5	< 20	–	–
COc1cc(N2CC3(CCN(C)CC3)C2)c(F)cc1Nc1ncc(Cl)c(Oc2cccc3c2C(=O)N(C)C32CCC2)n1 [Compound 206]	> 2000	< 5	< 20	–	–
COc1cc(C(=O)NC2CCN(C)CC2)c(F)cc1Nc1ncc(Cl)c(Oc2cccc3c2C(=O)N(C)C32CCOCC2)n1 [Compound 215]	> 2000	> 50	< 20	–	–
COc1cc(C(=O)NC2COC3(CCN(C)CC3)C2)ccc1Nc1ncc(C(F)(F)F)c(Oc2cccc3c2C(=O)N(C)C32CC2)n1 (stereo not drawn) [Compound 17]	> 2000	< 5	< 20	–	–
COc1cc(N2CC3CN(C)CC3C2)ccc1Nc1ncc(Cl)c(Oc2cccc3c2C(=O)N(C)C32CC2)n1 (stereo not drawn) [Compound 169]	> 2000	< 5	< 20	–	–
COc1cc(C(=O)N2CCC3(CCN(C)CC3)C2)ccc1Nc1ncc(C(F)(F)F)c(Oc2cccc3c2C(=O)N(C)C32CC2)n1 [Compound 60]	> 2000	5 to 50	< 20	–	–
COCCN1CCN(c2ccc(Nc3ncc(C(F)(F)F)c(Oc4cccc5c4C(=O)N(C)C54CC4)n3)c(OC)c2)CC1 [Compound 76, 4′-((2-((2-methoxy-4-(4-(2-methoxyethyl)piperazin-1-yl)phenyl)amino)-5-(trifluoromethyl)pyrimidin-4-yl)oxy)-2′-methylspiro[cyclopropane-1,1′-isoindolin]-3′-one]	> 2000	< 5	< 20	–	–
COc1cc(C(=O)N2CCC23CCN(C)CC3)ccc1Nc1ncc(C(F)(F)F)c(Oc2cccc3c2C(=O)N(C)C32CC2)n1 [Compound 59]	> 2000	5 to 50	< 20	–	–
COc1cc(N2CC3(CCC2=O)CCN(C)CC3)ccc1Nc1ncc(C(F)(F)F)c(Oc2cccc3c2C(=O)N(C)C32CC2)n1 [Compound 66]	> 2000	> 50	< 20	–	–
[2H]C([2H])([2H])N1CCC(NC(=O)c2cc(OC)c(Nc3ncc(C(F)(F)F)c(Oc4cccc5c4C(=O)N(C)C54CC4)n3)cc2F)CC1 [Compound 40]	> 2000	< 5	< 20	–	–
COCCN1CCN(c2ccc(Nc3ncc(Br)c(Oc4cccc5c4C(=O)N(C)C54CC4)n3)c(OC)c2)CC1 [Compound 185]	> 2000	< 5	< 20	–	–
COc1cc(C2CCN(C)CC2)ccc1Nc1ncc(C#N)c(Oc2cccc3c2C(=O)N(C)C32CC2)n1 [Compound 198]	> 2000	5 to 50	< 20	–	–
COc1cc(N2C3CCC2CN(C)C3)ccc1Nc1ncc(Cl)c(Oc2cccc3c2C(=O)N(C)C32CC2)n1 [Compound 166]	> 2000	5 to 50	< 20	–	–
COc1cc(N2CCN(C)CC2)ccc1Nc1ncc(C(F)(F)F)c(Cc2cccc3c2C(=O)N(C)C32CC2)n1 [Compound 111]	> 2000	5 to 50	< 20	–	–
COCCN1CCN(c2cc(OC)c(Nc3ncc(Cl)c(Oc4cccc5c4C(=O)N(C)C54CC4)n3)cc2F)CC1 [Compound 143]	> 2000	< 5	< 20	–	–
COc1cc(N2CC3(CN(C)C3)C2)ccc1Nc1ncc(Br)c(Oc2cccc3c2C(=O)N(C)C32CC2)n1 [Compound 188]	> 2000	5 to 50	< 20	–	–
